Data on 21 compounds can be found in patent US20070031328A1, “Radiolabeled-pegylation of ligands for use as imaging agents” (priority 2005, published 2007).

In series [1] the target is T1, Ab aggregates of AD brain homogenates (Homo sapiens, UniProt P05067).
T1 construct: to Ab aggregates of AD brain homogenates; from tissue; host or cells: post-mortem grey matter of AD patients, homogenised in PBS
As to conditions: [125I]IMPY, values marked as from refs (20), (6), (15); cited from earlier work.

For series [2] the following is noted: log of partition coefficient between 1-Octanol and buffer; compounds marked as from ref (20); cited from earlier work.
Series [3] has as its target T1, Ab aggregates of AD brain homogenates. Briefly: Inhibition of [125I]IMPY binding to Aβ aggregates of AD brain homogenates. The arrangement: species or system human (AD patients). Here is the method:
Postmortem brain tissues were obtained from AD patients at autopsy, and neuropathological diagnosis was confirmed by current criteria (NIA-Reagan Institute Consensus Group, 1997). Homogenates were then prepared from dissected gray matters from AD patients in phosphate buffered saline (PBS, pH 7.4) at the concentration of approximately 100 mg wet tissue/ml (motor-driven glass homogenizer with setting of 6 for 30 sec).
Binding assays were carried out in 12×75 mm borosilicate glass tubes. […] The mixture was incubated at 37° C. for 2 hr and the bound and the free radioactivity were separated by vacuum filtration through Whatman GF/B filters using a Brandel M-24R cell harvester followed by 2×3 ml washes of PBS at room temperature. Filters containing the bound ^125I ligand were assayed for radioactivity content in a gamma counter (Packard 5000) with 70% counting efficiency.
Binding assays were carried out in 12×75 mm borosilicate glass tubes. […] The mixture was incubated at 37° C. for 2 hr and the bound and the free radioactivity were separated by vacuum filtration through Whatman GF/B filters using a Brandel M-24R cell harvester followed by 2×3 ml washes of PBS at room temperature. Filters containing the bound ^125I ligand were assayed for radioactivity content in a gamma counter (Packard 5000) with 70% counting efficiency. […] The results of inhibition experiments were subjected to nonlinear regression analysis using EBDA by which Ki values were calculated.

Series [4] in a line: Partition coefficients, 1-octanol/buffer. The note with it: log of partition coefficient between 1-Octanol and buffer (0.1 M phosphate, pH 7.4). The format is physicochemical. The protocol: Partition coefficients were measured by mixing the [^18F]tracer with 3 g each of 1-octanol and buffer (0.1 M phosphate, pH 7.4) in a test tube. The test tube was vortexed for 3 min at room temperature, followed by centrifugation for 5 min. Two weighed samples (0.5 g each) from the 1-octanol and buffer layers were counted in a well counter. The partition coefficient was determined by calculating the ratio of cpm/g of 1-octanol to that of buffer. Samples from the 1-octanol layer were re-partitioned until consistent partitions of coefficient values were obtained (usually the 3rd or 4th partition). The measurement was done in triplicate and repeated three times.

The nature of series [5]: Periodic HPLC injection of purified [18F]8b (second peak formation). The format is physicochemical. The note with it: purified tracer injected periodically on HPLC after purification; attributed to E and Z isomers. Here is the method:
Radiolabeled [^18F]8b was prepared from the mesylate precursor in moderate radiochemical yield (23%) but unfortunately could not be prepared in good radiochemical purity. The formation of a second peak was evident within minutes of labeling. […] They attribute the formation of a second peak to the facile formation of E and Z isomers (30).
[^18F]8b from precursor 11: (HPLC conditions: Phenomenex Gemini C18 semi-prep column [(5.0×250 mm, 5 μm); Acetonitrile/water 60/40; flow rate 3 mL/min)
Retention time of ^18F-labeled product was 28.0 min., well separated from the major hydrolysis by-product (Rt=11.8 min.). The product was isolated in 23% radiochemical yield (decay corrected) and greater than 98% radiochemical purity. Purified [^18F]8b was injected periodically after purification. Formation of a second peak increased to 50% of the parent compound.

The mark [6] stands for this setting: 1-octanol/buffer, read-out: logP.

Each structure is given as a SMILES string. Read-outs that look alike come from different tables or passages of the source.

T1 sequence (P05067 672-713 limits assumed): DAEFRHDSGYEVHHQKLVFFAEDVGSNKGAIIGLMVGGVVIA

For the compound `CNc1ccc(/C=C/c2nc3ccc(OCCF)cc3o2)cc1` [BF-168, reference compound], in series [1], the Ki is 6.4 nM.

For the compound `CNc1ccc(/C=C/c2ccc(OCCOCCF)cc2)cc1` [Compound 1a], the Ki in series [1] is 2.9 ± 0.2 nM. Moreover, the logP in series [2] was 2.53. In the case of `CNc1ccc(/C=C/c2ccc(OCCOCCOCCF)cc2)cc1` [Compound 1b], the Ki in series [1] was 6.7 ± 0.3 nM. Besides, the logP in series [2] was 2.41. For the compound `CNc1ccc(/C=C/c2ccc(OCCOCCOCCOCCF)cc2)cc1` [Compound 1c], the Ki in series [1] is 4.4 ± 0.8 nM. In addition, the logP in series [2] is recorded as 2.05. Regarding `CNc1ccc(/C=C/c2ccc(OCCOCCOCCOCCOCCF)cc2)cc1` [Compound 1d], the Ki in series [1] was 6.8 ± 0.8 nM. Moreover, the logP in series [2] is given as 2.27. `CNc1ccc(-c2nc3ccc(OCCOCCF)cc3s2)cc1` [Compound 5a, 2-[4′-(methylamino)phenyl]-6-[2-(2-fluoroethoxy)-ethoxy]benzothiazole] gave a Ki in series [3] of 2.2 ± 0.5 nM. In series [4] (setting [6]), the logP turned out to be 3.04. In series [3], `CNc1ccc(-c2nc3ccc(OCCOCCOCCF)cc3s2)cc1` [Compound 5b, 2-[4′-(methylamino)phenyl]-6-{2-[2-(2-fluoroethoxy)-ethoxy]ethoxy}benzothiazole] had a Ki of 3.8 ± 0.5 nM. Also, the logP in series [4] (setting [6]) turned out to be 3.04.

Regarding `CNc1ccc(-c2nc3ccc(OCCOCCOCCOCCOCCOCCF)cc3s2)cc1` [Compound 5c, 2-[4′-(methylamino)phenyl]-6-{2-[2-(2-{2-[2-(2-fluoroethoxy)-ethoxy]ethoxy}ethoxy)ethoxy]ethoxy}benzothiazole], the Ki in series [3] turned out to be 4.7 ± 0.9 nM. Moreover, the logP in series [4] (setting [6]) came out at 2.99. `CNc1ccc(-c2nc3ccc(OCCOCCOCCOCCOCCOCCOCCOCCF)cc3s2)cc1` [Compound 5d, 2-[4′-(methylamino)phenyl]-6-[2-(2-{2-[2-(2-{2-[2-(2-fluoroethoxy)-ethoxy]ethoxy}ethoxy)ethoxy]ethoxy}ethoxy)ethoxy]benzothiazole]: in series [3], the Ki was 9 ± 1.8 nM. Compound `CN(C)c1ccc(C=Cc2nc3ccc(OCCF)cc3o2)cc1` [Compound 8a, 6-(2-fluoroethoxy)-[2-(4-dimethylaminophenyl)-vinyl]-benzooxazol] displayed an inhibition constant Ki in series [3] of 12 ± 0.5 nM. Take `CN(C)c1ccc(C=Cc2nc3ccc(OCCOCCOCCF)cc3o2)cc1` [Compound 8b, 6-(2-(2-(2-fluoroethoxy)-ethoxy)-ethoxy)-[2-(4-dimethylaminophenyl)-vinyl]-benzooxazol]: in series [3], affinity was put at a Ki of 14.5 ± 5 nM. Moreover, the lipophilicity (logP) in series [4] (setting [6]) came to 2.93. As to `CN(C)c1ccc(/C=C/c2nc3ccc(OCCOCCOCCOCCOCCOCCF)cc3o2)cc1` [Compound 8c, 6-(2-(2-(2-(2-(2-(2-fluoroethoxy)-ethoxy)-ethoxy)-ethoxy)-ethoxy)-ethoxy)-[2-(4-dimethylaminophenyl)-vinyl]-benzooxazol], in series [3], the Ki came to 10 ± 0.2 nM. `CN(C)c1ccc(C=Cc2nc3ccc(OCCOCCOCCOCCOCCOCCOCCOCCF)cc3o2)cc1` [Compound 8d, 6-(2-(2-(2-(2-(2-(2-(2-(2-fluoroethoxy)-ethoxy)-ethoxy)-ethoxy)-ethoxy)-ethoxy)-ethoxy)-ethoxy)-[2-(4-dimethylaminophenyl)-vinyl]-benzooxazol]: the affinity in series [3] corresponds to a Ki of 6 ± 0.6 nM. In the case of `CN(C)c1ccc(-c2cn3cc(OCCF)ccc3n2)cc1` [Compound 12a, 6-(2-fluoroethoxy)-2-(4-dimethylamino-)phenyl-imidazo [1,2-a]pyridine], the Ki in series [3] came out at 16 ± 2 nM.

Compound `CN(C)c1ccc(-c2cn3cc(OCCOCCF)ccc3n2)cc1` [Compound 12b, 6-(2-fluoroethoxy-ethoxy)-2-(4-dimethylamino-)phenyl-imidazo[1,2-a]pyridine] returned a Ki in series [3] of 31 ± 9 nM. As for `CN(C)c1ccc(-c2cn3cc(OCCOCCOCCF)ccc3n2)cc1` [Compound 12c, 6-(2-fluoroethoxy-ethoxy-ethoxy)-2-(4-dimethylamino-)phenyl-imidazo[1,2-a]pyridine], the Ki in series [3] was 30 ± 2.5 nM. In addition, the logP in series [4] (setting [6]) stood at 2.69.

Regarding `CN(C)c1ccc(-c2cn3cc(OCCOCCOCCOCCOCCOCCF)ccc3n2)cc1` [Compound 12d, 6-(2-fluoroethoxy-ethoxy-ethoxy-ethoxy-ethoxy-ethoxy)-2-(4-dimethylamino-)phenyl-imidazo[1,2-a]pyridine], the affinity in series [3], expressed as Ki, was 96 ± 14 nM. Regarding `CN(C)c1ccc(-c2cn3cc(OCCOCCOCCOCCOCCOCCOCCOCCF)ccc3n2)cc1` [Compound 12e, 6-(2-fluoroethoxy-ethoxy-ethoxy-ethoxy-ethoxy-ethoxy-ethoxy-ethoxy)-2-(4-dimethylamino-) phenyl-imidazo[1,2-a]pyridine], the Ki in series [3] was found to be 387 ± 12 nM. Consider `CN(C)c1ccc(-c2cn3cc(I)ccc3n2)cc1` [IMPY, 6-iodo-2-(4′-dimethylamino)phenyl-imidazo[1,2-a]pyridine, reference compound], for which, in series [4] (setting [6]), the logP is 2.19. For the compound `CNc1ccc(/C=C/c2ccc(O)cc2)cc1` [SB-13, reference compound], the logP in series [4] is 2.36.

For `CN(C)c1ccc(/C=C/c2nc3ccc(OCCOCCOCC[18F])cc3o2)cc1` [[^18F]8b], the “Formation of a second peak, of the parent compound” value in series [5] is listed as 50%.

A word on the Ki: it is the dissociation constant of the complex between target and ligand, obtained from inhibition or displacement. In general, logP refers to a log measure of how a compound divides between an organic and an aqueous phase.
